# Measurements from the supplement of paper PMC10307832.
# Experiments:
# Test in all cases: relative viability (nuclei count vs DMSO), 5 days (fraction); higher = more cells survive
# Entinostat + Decitabine = compound: Nc1ccccc1NC(=O)c1ccc(CNC(=O)OCc2cccnc2)cc1 [Entinostat] + Nc1ncn([C@H]2C[C@H](O)[C@@H](CO)O2)c(=O)n1 [Decitabine] (partner 2 µM)
# In short: (§1)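 Nuclei were stained with Hoechst during a one-step fixation (final 0.05% Triton X-100, 1% formaldehyde, 1 ug/ml Hoechst) carried out 5 days after dosing, then counted on 4× images. The cells, lung cancer lines in 1536-well plates, had been dosed by pin tool the day after seeding with one drug alone or a fixed anchor-drug dose plus five library-drug doses (not always all listed) in √10 steps. Relative viability is the nuclei count in treated wells divided by that in vehicle wells, and each value is the median of duplicate plates.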
# SGI-1776 + Olaparib = compound: CN1CCC(CNc2ccc3ncc(-c4cccc(OC(F)(F)F)c4)n3n2)CC1 [SGI-1776] + O=C(c1cc(Cc2n[nH]c(=O)c3ccccc23)ccc1F)N1CCN(C(=O)C2CC2)CC1 [Olaparib] (partner 8 µM)
# In short: as §1
# Entinostat + Lapatinib = compound: Nc1ccccc1NC(=O)c1ccc(CNC(=O)OCc2cccnc2)cc1 [Entinostat] + CS(=O)(=O)CCNCc1ccc(-c2ccc3ncnc(Nc4ccc(OCc5cccc(F)c5)c(Cl)c4)c3c2)o1 [Lapatinib] (partner 2 µM)
# In short: as §1
# SGI-1776 + Luminespib = compound: CN1CCC(CNc2ccc3ncc(-c4cccc(OC(F)(F)F)c4)n3n2)CC1 [SGI-1776] + CCNC(=O)c1noc(-c2cc(C(C)C)c(O)cc2O)c1-c1ccc(CN2CCOCC2)cc1 [Luminespib] (partner 0.01 µM)
# In short: as §1
Cell Line,relative viability (Entinostat + Decitabine; first compound 0.02 µM),relative viability (Entinostat + Decitabine; first compound 0.06325 µM),relative viability (Entinostat + Decitabine; first compound 0.2 µM),relative viability (Entinostat + Decitabine; first compound 0.6325 µM),relative viability (Entinostat + Decitabine; first compound 2 µM),relative viability (SGI-1776 + Olaparib; first compound 0.08 µM),relative viability (SGI-1776 + Olaparib; first compound 0.8 µM),relative viability (SGI-1776 + Olaparib; first compound 2.53 µM),relative viability (SGI-1776 + Olaparib; first compound 8 µM),relative viability (Entinostat + Lapatinib; first compound 0.02 µM),relative viability (Entinostat + Lapatinib; first compound 0.06325 µM),relative viability (Entinostat + Lapatinib; first compound 0.2 µM),relative viability (Entinostat + Lapatinib; first compound 0.6325 µM),relative viability (Entinostat + Lapatinib; first compound 2 µM),relative viability (SGI-1776 + Luminespib; first compound 0.08 µM),relative viability (SGI-1776 + Luminespib; first compound 0.8 µM),relative viability (SGI-1776 + Luminespib; first compound 2.53 µM),relative viability (SGI-1776 + Luminespib; first compound 8 µM)
HCC-827,0.318,0.338,0.315,0.223,0.226,0.694,0.615,0.739,0.658,0.18,0.184,0.126,0.147,0.17,0.551,0.622,0.782,0.348
HOP-62,0.272,0.248,0.248,0.213,0.132,0.436,0.63,0.448,0.59,1.12,0.994,0.907,0.532,0.323,0.835,0.93,0.941,0.89
IA-LM,,,,,,0.97,0.785,0.919,0.846,0.892,0.926,1.17,0.601,0.514,,,,
LC-2-ad,0.833,0.74,0.642,0.611,0.438,0.755,0.776,0.756,0.696,0.975,0.904,0.907,0.334,0.113,0.983,1.09,1.06,0.769
LCLC-97TM1,0.23,0.213,0.314,0.163,0.16,0.421,0.421,0.419,0.439,0.942,1.21,0.784,0.41,0.326,0.947,0.847,0.746,0.742
LCLC-103H,0.714,0.72,0.757,0.488,0.472,0.781,0.776,0.716,0.7,,,,,,0.965,0.88,0.948,0.729
LK-2,0.311,0.335,0.262,0.165,0.115,0.783,0.768,0.717,0.579,0.98,1.05,1.01,0.476,0.459,0.17,0.188,0.257,0.159
LOU-NH91,0.813,0.788,0.802,0.771,0.689,0.968,0.986,0.957,0.773,0.781,0.848,0.769,0.765,0.561,0.366,0.345,0.367,0.305
LU99A,0.953,0.952,0.749,0.696,0.646,0.304,0.312,0.305,0.238,0.957,1.04,0.863,0.617,0.592,0.245,0.247,0.253,0.254
LXF-289,0.422,0.381,0.446,0.358,0.31,0.966,1.12,1.1,1.03,0.884,0.916,0.841,0.647,0.481,0.688,0.654,0.665,0.598
NCI-H23,0.32,0.344,0.3,0.268,0.234,0.32,0.331,0.299,0.332,1.17,1.13,1.02,0.616,0.476,0.217,0.221,0.238,0.192
NCI-H322M,0.742,0.722,0.787,0.725,0.665,0.871,0.772,0.812,0.697,0.643,0.612,0.623,0.647,0.621,0.999,0.901,0.881,0.635
NCI-H358,0.188,0.201,0.173,0.153,0.137,0.648,0.605,0.569,0.403,0.467,0.438,0.521,0.367,0.287,0.729,0.506,0.432,0.315
NCI-H441,0.237,0.284,0.264,0.138,0.132,0.569,0.521,0.608,0.491,,,,,,0.379,0.294,0.312,0.239
NCI-H522,0.65,0.684,0.693,0.666,0.639,0.612,0.52,0.623,0.551,,,,,,1.16,1.1,1.09,0.972
NCI-H1299,,,,,,1.01,0.962,1.05,0.897,0.927,0.933,0.956,0.805,0.571,,,,
NCI-H1563,,,,,,,,,,0.915,1.01,0.891,0.821,0.581,0.522,0.497,0.515,0.538
NCI-H1623,,,,,,,,,,,,,,,0.468,0.612,0.576,0.506
NCI-H1648,0.476,0.524,0.416,0.326,0.285,0.648,0.763,0.761,1.21,,,,,,,,,
NCI-H1703,,,,,,0.338,0.394,0.387,0.12,1.22,1.17,1.59,1.05,0.453,,,,
NCI-H2228,,,,,,0.671,0.762,0.548,0.396,1.12,1.02,1.08,0.457,0.315,0.169,0.139,0.164,0.13
NCI-H2342,0.806,0.704,0.65,0.607,0.557,0.525,0.445,0.454,0.49,,,,,,0.695,0.767,0.721,0.64
SW 900,0.429,0.419,0.391,0.302,0.286,0.792,0.886,1.15,0.636,,,,,,0.178,0.173,0.208,0.166
